How the values were obtained:
[1] = tested on: ryegrass, Italian (Italian ryegrass, Lolium multiflorum); assay: Test A preemergence, ryegrass, Italian; assay type: in vivo; conditions: Lolium multiflorum, pre-emergence, 240 h, 0 to 100 scale (0 no effect, 100 complete control), read-out: Plant response rating, Ryegrass, Italian; for pest or weed control at 31 g/ha: 31 g ai/ha; for pest or weed control at 125 g/ha: 125 g ai/ha
rice (Oryza sativa) = assay: Test B flooded paddy test, rice; conditions: Oryza sativa, read-out: Plant response rating, Rice (0 to 100 scale, 0 is no effect, 100 is complete control)
kochia (Kochia scoparia) [2] = assay: Test A preemergence, kochia; assay type: in vivo; conditions: Bassia scoparia, pre-emergence, 240 h, 0 to 100 scale (0 no effect, 100 complete control), read-out: Plant response rating, Kochia; for pest or weed control at 31 g/ha: 31 g ai/ha; for pest or weed control at 125 g/ha: 125 g ai/ha
[3] = tested on: barnyardgrass (Echinochloa crus-galli); assay: Test B flooded paddy test, barnyardgrass; conditions: Echinochloa crus-galli, read-out: Plant response rating, Barnyardgrass (0 to 100 scale, 0 is no effect, 100 is complete control)
[4] = tested on: ducksalad (Heteranthera limosa); assay: Test B flooded paddy test, ducksalad; conditions: Heteranthera limosa, read-out: Plant response rating, Ducksalad (0 to 100 scale, 0 is no effect, 100 is complete control)
[5] = tested on: foxtail, green (green foxtail, Setaria viridis); assay: Test A postemergence, foxtail, green; assay type: in vivo; conditions: Setaria, post-emergence, 240 h, 0 to 100 scale (0 no effect, 100 complete control), read-out: Plant response rating, Foxtail, Green; for pest or weed control at 31 g/ha: 31 g ai/ha; for pest or weed control at 125 g/ha: 125 g ai/ha
[6] = tested on: ryegrass, Italian (Italian ryegrass, Lolium multiflorum); assay: Test A postemergence, ryegrass, Italian; assay type: in vivo; conditions: Lolium multiflorum, post-emergence, 240 h, 0 to 100 scale (0 no effect, 100 complete control), read-out: Plant response rating, Ryegrass, Italian; for pest or weed control at 31 g/ha: 31 g ai/ha; for pest or weed control at 125 g/ha: 125 g ai/ha
corn (Zea mays) = assay: Test A postemergence, corn; assay type: in vivo; conditions: Zea mays, post-emergence, 240 h, 0 to 100 scale (0 no effect, 100 complete control); for Corn plant response rating (crop injury, 0 = no effect, 100 = complete kill) at 31 g/ha: 31 g ai/ha; for Corn plant response rating (crop injury, 0 = no effect, 100 = complete kill) at 125 g/ha: 125 g ai/ha
[7] = tested on: ragweed (common ragweed, Ambrosia elatior); assay: Test A preemergence, ragweed; assay type: in vivo; conditions: Ambrosia artemisiifolia, pre-emergence, 240 h, 0 to 100 scale (0 no effect, 100 complete control), read-out: Plant response rating, Ragweed; for pest or weed control at 31 g/ha: 31 g ai/ha; for pest or weed control at 125 g/ha: 125 g ai/ha
[8] = tested on: barnyardgrass (Echinochloa crus-galli); assay: Test A preemergence, barnyardgrass; assay type: in vivo; conditions: Echinochloa crus-galli, pre-emergence, 240 h, 0 to 100 scale (0 no effect, 100 complete control), read-out: Plant response rating, Barnyardgrass; for pest or weed control at 31 g/ha: 31 g ai/ha; for pest or weed control at 125 g/ha: 125 g ai/ha
[9] = tested on: ragweed (common ragweed, Ambrosia elatior); assay: Test A postemergence, ragweed; assay type: in vivo; conditions: Ambrosia artemisiifolia, post-emergence, 240 h, 0 to 100 scale (0 no effect, 100 complete control), read-out: Plant response rating, Ragweed; for pest or weed control at 31 g/ha: 31 g ai/ha; for pest or weed control at 125 g/ha: 125 g ai/ha
[10] = tested on: blackgrass (Alopecurus myosuroides); assay: Test A postemergence, blackgrass; assay type: in vivo; conditions: Alopecurus myosuroides, post-emergence, 240 h, 0 to 100 scale (0 no effect, 100 complete control), read-out: Plant response rating, Blackgrass; for pest or weed control at 31 g/ha: 31 g ai/ha; for pest or weed control at 125 g/ha: 125 g ai/ha
[11] = tested on: pigweed (Amaranthus retroflexus); assay: Test A preemergence, pigweed; assay type: in vivo; conditions: Amaranthus retroflexus, pre-emergence, 240 h, 0 to 100 scale (0 no effect, 100 complete control), read-out: Plant response rating, Pigweed; for pest or weed control at 31 g/ha: 31 g ai/ha; for pest or weed control at 125 g/ha: 125 g ai/ha
[12] = tested on: wheat (Triticum aestivum); assay: Test A postemergence, wheat; assay type: in vivo; conditions: Triticum aestivum, post-emergence, 240 h, 0 to 100 scale (0 no effect, 100 complete control), read-out: Plant response rating, Wheat; for plant injury at 31 g/ha: 31 g ai/ha; for plant injury at 125 g/ha: 125 g ai/ha
[13] = tested on: galium (catchweed bedstraw, Galium aparine); assay: Test A postemergence, galium; assay type: in vivo; conditions: Galium, post-emergence, 240 h, 0 to 100 scale (0 no effect, 100 complete control), read-out: Plant response rating, Galium; for pest or weed control at 31 g/ha: 31 g ai/ha; for pest or weed control at 125 g/ha: 125 g ai/ha
kochia (Kochia scoparia) [14] = assay: Test A postemergence, kochia; assay type: in vivo; conditions: Bassia scoparia, post-emergence, 240 h, 0 to 100 scale (0 no effect, 100 complete control), read-out: Plant response rating, Kochia; for pest or weed control at 31 g/ha: 31 g ai/ha; for pest or weed control at 125 g/ha: 125 g ai/ha
[15] = tested on: pigweed (Amaranthus retroflexus); assay: Test A postemergence, pigweed; assay type: in vivo; conditions: Amaranthus retroflexus, post-emergence, 240 h, 0 to 100 scale (0 no effect, 100 complete control), read-out: Plant response rating, Pigweed; for pest or weed control at 31 g/ha: 31 g ai/ha; for pest or weed control at 125 g/ha: 125 g ai/ha
[16] = tested on: barnyardgrass (Echinochloa crus-galli); assay: Test A postemergence, barnyardgrass; assay type: in vivo; conditions: Echinochloa crus-galli, post-emergence, 240 h, 0 to 100 scale (0 no effect, 100 complete control), read-out: Plant response rating, Barnyardgrass; for pest or weed control at 31 g/ha: 31 g ai/ha; for pest or weed control at 125 g/ha: 125 g ai/ha

Structure (SMILES) | pest or weed control at 31 g/ha [1] | pest or weed control at 125 g/ha [1] | plant injury at 250 g/ha (rice (Oryza sativa)) | pest or weed control at 31 g/ha (kochia (Kochia scoparia) [2]) | pest or weed control at 125 g/ha (kochia (Kochia scoparia) [2]) | pest or weed control at 250 g/ha [3] | pest or weed control at 250 g/ha [4] | pest or weed control at 31 g/ha [5] | pest or weed control at 125 g/ha [5] | pest or weed control at 31 g/ha [6] | pest or weed control at 125 g/ha [6] | Corn plant response rating (crop injury, 0 = no effect, 100 = complete kill) at 31 g/ha (corn (Zea mays)) | Corn plant response rating (crop injury, 0 = no effect, 100 = complete kill) at 125 g/ha (corn (Zea mays)) | pest or weed control at 31 g/ha [7] | pest or weed control at 125 g/ha [7] | pest or weed control at 31 g/ha [8] | pest or weed control at 125 g/ha [8] | pest or weed control at 31 g/ha [9] | pest or weed control at 125 g/ha [9] | pest or weed control at 31 g/ha [10] | further results
O=C1O[C@@H](CCCC(F)(F)F)c2c(Oc3ncc(Cl)cn3)cccc21 [Compound 2, (3S)-4-[(5-Chloro-2-pyrimidinyl)oxy]-3-(4,4,4-trifluorobutyl)-1-(3H)-isobenzofuranone] | 0% | 0% | 0% | 0% | 0% | 0% | 0% | 0% | 10% | 0% | 10% | 0% | 10% | 0% | 0% | 0% | 0% | 0% | 30% | 0% | pest or weed control at 125 g/ha [10]: 0%; pest or weed control at 31 g/ha [11]: 0%; pest or weed control at 125 g/ha [11]: 20%; plant injury at 31 g/ha [12]: 0%; plant injury at 125 g/ha [12]: 0%; pest or weed control at 31 g/ha [13]: 0%; pest or weed control at 125 g/ha [13]: 10%; pest or weed control at 31 g/ha (kochia (Kochia scoparia) [14]): 0%; pest or weed control at 125 g/ha (kochia (Kochia scoparia) [14]): 10%; pest or weed control at 31 g/ha [15]: 10%; pest or weed control at 125 g/ha [15]: 50%; pest or weed control at 31 g/ha [16]: 0%; pest or weed control at 125 g/ha [16]: 0%
O=C1O[C@H](CCCC(F)(F)F)c2c(Oc3ncc(Cl)cn3)cccc21 [Compound 3, (3R)-4-[(5-Chloro-2-pyrimidinyl)oxy]-3-(4,4,4-trifluorobutyl)-1-(3H)-isobenzofuranone] | 70% | 100% | 60% | 80% | 100% | 60% | 90% | 40% | 100% | 40% | 100% | 50% | 80% | 0% | 0% | 90% | 100% | 10% | 60% | 80% | pest or weed control at 125 g/ha [10]: 100%; pest or weed control at 31 g/ha [11]: 100%; pest or weed control at 125 g/ha [11]: 100%; plant injury at 31 g/ha [12]: 60%; plant injury at 125 g/ha [12]: 90%; pest or weed control at 31 g/ha [13]: 100%; pest or weed control at 125 g/ha [13]: 100%; pest or weed control at 31 g/ha (kochia (Kochia scoparia) [14]): 90%; pest or weed control at 125 g/ha (kochia (Kochia scoparia) [14]): 100%; pest or weed control at 31 g/ha [15]: 100%; pest or weed control at 125 g/ha [15]: 100%; pest or weed control at 31 g/ha [16]: 30%; pest or weed control at 125 g/ha [16]: 90%

Reference: US11427549B2, “Pyrimidinyloxy benzo-fused compounds as herbicides” (FMC Corporation, priority 2017, dated 2022)
